Results as given in patent publication US8304382B2, “Anti-inflammatory and anti-allergic cyclic peptides” (Cristalia Productos Quimicos Farmaceuticos Ltda., priority 2006, dated 2012).
Bridge positions count the residues as written; N and C are the ends. Peptide text beside a SMILES is read from it.

Molecular target: T1, trypsin (Bos taurus, UniProt P00760)
T1 construct: gene PRSS1
T1 sequence (P00760 24-246): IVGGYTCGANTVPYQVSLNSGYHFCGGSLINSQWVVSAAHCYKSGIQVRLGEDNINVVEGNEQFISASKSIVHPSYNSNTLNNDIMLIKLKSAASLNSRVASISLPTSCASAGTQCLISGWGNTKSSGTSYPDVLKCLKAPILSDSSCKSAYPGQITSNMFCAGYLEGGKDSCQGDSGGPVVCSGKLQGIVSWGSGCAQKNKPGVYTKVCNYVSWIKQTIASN
Experiment: Inhibition of trypsin, determination of inhibition constants (Ki)
Assay type: biochemical
Description: The substrate utilized was Abz-Phe-Arg-Ser-Ser-Arg-Gln-EDDnp (SEQ ID NO: 11), a fluorescent analog of bradykinin, purified by way of high pressure liquid chromatography, (HPLC) until purity greater than 95% (single peak) was achieved.
The hydrolysis reactions were conducted using a Hitachi. F-2000 spectrofluorometer, with the excitation and emission slits set at 10 and 20 nm, and the excitation and emission wavelengths at 320 and 420 nm, respectively. The temperature of the reaction cuvette was maintained at 37° C. in a thermostatically controlled compartment.
The enzymatic activity of trypsin (0.5-5 nM) was determined in 50 mM Tris-HCl buffer, pH 8.0, containing 20 mM NaCl at 37° C., with the addition of approximately 0.1-6.0 μM of the fluorescent substrates. The increase in fluorescence was monitored continually for 5 min in the spectrofluorometer. When necessary, the correction of the fluorescent reading was done using the empiric equation described by Araújo et. al., Biochemistry 25; 8519, 2000. Kinetic data were determined from the initial hydrolysis (consumption of substrate less than 10%) and calculations involving kinetic parameters (Km, Vmáx and kcat) were performed using the Michaelis-Menten equation furnished by the GRAFIT for Windows 3.0 program.
To determine the inhibition kinetics of trypsin with the peptides of the present invention, three substrate concentrations were used: a) corresponding to half of the value of Km (0.8 μM); b) corresponding to the whole value of Km (1.6 μM); c) corresponding to slightly more than double the value of Km (3.5 μM). […] Incubation carried out at 37° C. Tris-HCl buffer, pH 8.0, containing 20 mM NaCl at 37° C. For characterization of enzymatic inhibition, a Lineweaver-Burk plot was employed (1/V vs 1/S), and the value of Ki was determined from the relation between the apparent inhibition constant (Ki(app)) and the value of Km for the substrate: Ki(app)=[I]/[(v0/vi)−1] and Ki=Ki(app)/[(Km/[S])+1] where; [I]=inhibitor concentration; (v0/vi)=ratio of the hydrolysis velocities in the absence and presence of inhibitor, respectively. Km/[S]=ratio between Km of the substrate and substrate concentration.

In the case of CC[C@H](C)[C@H](N)C(=O)N1CCC[C@H]1C(=O)N[C@@H](CCCNC(=N)N)C(=O)N[C@H]1CSSC[C@@H](C(=O)O)NC(=O)[C@H](CCSC)NC(=O)[C@H](CCCCN)NC(=O)[C@H](C(C)C)NC(=O)CNC(=O)[C@@H]2CCCN2C(=O)[C@H](CCSC)NC(=O)[C@H](CCCCN)NC(=O)[C@H](CCCNC(=N)N)NC1=O [SEQ ID NO: 1, Ile1-Pro2-Arg3-Cys4-Arg5-Lys6-Met7-Pro8-Gly9-Val10-Lys11-Met12-Cys13] (H-IPRCRKMPGVKMC-OH; disulfide 4-13), the Ki is reported as 22.5 nM and the “type of inhibition of trypsin” value (FIG. 1) is reported as “simple, competitive inhibition”.

For CC[C@H](C)[C@@H]1NC(=O)[C@H]([C@@H](C)O)NC(=O)[C@@H](NC(=O)[C@H](CCC(N)=O)NC(=O)[C@H](CCC(=O)O)NC(=O)[C@@H](N)C(C)C)CSSC[C@@H](C(=O)O)NC(=O)[C@H](CC(=O)O)NC(=O)[C@H](CCCCN)NC(=O)[C@H](CCC(=O)O)NC(=O)[C@H](CC(=O)O)NC(=O)CNC(=O)[C@H]([C@@H](C)CC)NC1=O [SEQ ID NO: 2, Val1-Glu2-Gln3-Cys4-Thr5-Ile6-Ile7-Gly8-Asp9-Glu10-Lys11-Asp12-Cys13] (H-VEQCTIIGDEKDC-OH; disulfide 4-13), the Ki was 24 nM.

Molecule CC[C@H](C)[C@@H]1NC(=O)[C@H]([C@@H](C)O)NC(=O)[C@@H](NC(=O)[C@H](CCC(N)=O)NC(=O)[C@H](CCC(=O)O)NC(=O)[C@@H](N)C(C)C)CSSC[C@@H](C(=O)O)NC(=O)[C@H](CC(=O)O)NC(=O)[C@H](CCCCN)NC(=O)[C@H](C)NC(=O)[C@H](CC(=O)O)NC(=O)CNC(=O)[C@H]([C@@H](C)CC)NC1=O [SEQ ID NO: 3, Val1-Glu2-Gln3-Cys4-Thr5-Ile6-Ile7-Gly8-Asp9-Ala10-Lys11-Asp12-Cys13] (H-VEQCTIIGDAKDC-OH; disulfide 4-13) has a Ki of 63.6 nM.

CC[C@H](C)[C@@H]1NC(=O)[C@H](CCC(=O)O)NC(=O)[C@H](CO)NC(=O)[C@@H](NC(=O)[C@H](CCC(N)=O)NC(=O)[C@H](CCC(N)=O)NC(=O)[C@@H](N)C(C)C)CSSC[C@@H](C(=O)O)NC(=O)[C@@H]2CCCN2C(=O)[C@H](CCCCN)NC(=O)[C@H](C)NC(=O)CNC(=O)[C@H](C)NC1=O [SEQ ID NO: 4, Val1-Gln2-Gln3-Cys4-Ser5-Glu6-Ile7-Ala8-Gly9-Ala10-Lys11-Pro12-Cys13] (H-VQQCSEIAGAKPC-OH; disulfide 4-13) was tested, and the Ki was 42 nM.

In the case of CC[C@H](C)[C@@H]1NC(=O)[C@H](CCCCN)NC(=O)[C@H](CC(=O)O)NC(=O)[C@@H](NC(=O)[C@H](CCCNC(=N)N)NC(=O)[C@H](Cc2c[nH]cn2)NC(=O)[C@@H](N)CC(C)C)CSSC[C@@H](C(=O)O)NC(=O)[C@@H]2CCCN2C(=O)[C@H](CCCCN)NC(=O)[C@H](C)NC(=O)[C@H](CC(=O)O)NC(=O)[C@H](C)NC1=O [SEQ ID NO: 5, Leu1-His2-Arg3-Cys4-Asp5-Lys6-Ile7-Ala8-Asp9-Ala10-Lys11-Pro12-Cys13] (H-LHRCDKIADAKPC-OH; disulfide 4-13), the Ki is reported as 44 nM.

In the case of CC[C@H](C)[C@H](N)C(=O)N1CCC[C@H]1C(=O)N[C@@H](CCCNC(=N)N)C(=O)N[C@H]1CSSC[C@@H](C(=O)O)NC(=O)[C@H](CCSC)NC(=O)[C@H](CCCCN)NC(=O)[C@H](C(C)C)NC(=O)CNC(=O)[C@@H]2CCCN2C(=O)[C@H](CCSC)NC(=O)[C@H](C)NC(=O)[C@H](CCCNC(=N)N)NC1=O [SEQ ID NO: 6, Ile1-Pro2-Arg3-Cys4-Arg5-Ala6-Met7-Pro8-Gly9-Val10-Lys11-Met12-Cys13] (H-IPRCRAMPGVKMC-OH; disulfide 4-13), the Ki is reported as 24.2 nM.

Molecule CC[C@H](C)[C@H](NC(C)=O)C(=O)N1CCC[C@H]1C(=O)N[C@@H](CCCNC(=N)N)C(=O)N[C@H]1CSSC[C@@H](C(=O)O)NC(=O)[C@H](CCSC)NC(=O)[C@H](CCCCN)NC(=O)[C@H](C(C)C)NC(=O)CNC(=O)[C@@H]2CCCN2C(=O)[C@H](CCSC)NC(=O)[C@H](CCCCN)NC(=O)[C@H](CCCNC(=N)N)NC1=O [SEQ ID NO: 8, Ac-Ile1-Pro2-Arg3-Cys4-Arg5-Lys6-Met7-Pro8-Gly9-Val10-Lys11-Met12-Cys13] (Ac-IPRCRKMPGVKMC-OH; disulfide 4-13) has a Ki of 24.8 nM.
